Source: patent publication US20250213587A1, “ITK INHIBITORS FOR INCREASING TH1 CELL ACTIVITY” (Corvus Pharmaceuticals, Inc., priority 2022, published 2025)

Assays:
[1] = system: ZAP-70 phosphorylation; test: ZAP-70 phosphorylation in Jurkat cells; assay type: cell-based, human; details: anti-CD3
Experimental: (§1) Jurkat human acute T cell leukemia cell line (ATCC, TIB-152) was cultured in RPMI 1640 medium supplemented with Penicillin-Streptomycin (Gibco) and 10% fetal bovine serum (FBS) at 37° C. and 5% CO2. […] The cell pellet was resuspended in NP40 lysis buffer (Invitrogen) containing protease and phosphatase inhibitors cocktail (Cell Signaling Technology), incubated for 30 minutes on ice, and centrifuged at 15, 000×g for 10 minutes. The lysate supernatant from each condition containing 50 μg of total protein was resolved on an 8% Bis-Tris gel (Invitrogen) under reducing condition and transferred onto a nitrocellulose membrane (Invitrogen) using an iBlot2 gel transfer device. Unless specified otherwise, all reagents described above were purchased from Thermo Fisher Scientific. Membranes were blocked for 1 hour at room temperature and incubated overnight at 4° C. with primary antibodies (1:1000 dilution) in Odyssey blocking buffer (LI-COR) with 0.2% Tween 20. Membranes were washed 4 times (5 min each) in Tris-buffered saline, 0.10% Tween 20 and incubated with IRDye 800CW Anti-Rabbit IgG and IRDye 700CW Anti-Mouse IgG (LI-COR) secondary antibodies (1:20,000 dilution) for 1 hour at room temperature. After washes, membranes were imaged in the LI-COR Odyssey® Fc Imaging System. […]

[2] = system: IL-2 secretion by Jurkat T cells; test: Inhibition of IL-2 production in Jurkat cells; assay type: cell-based; details: Homo sapiens, washout, anti-CD3 18 hours, 15 determinations
Experimental: Jurkat cells (0.25×10^6) in Dulbecco's Modified Eagle's medium (Gibco) supplemented with 5% FBS were seeded in each well of a 96 well MultiScreenR HV filter plate (EMD Millipore) placed on top of a 96 well collection plate. CPI 818 was serially diluted in DMSO and added to the culture. After a 2-hour incubation at 37° C. the plates were centrifuged (188×g for 15 seconds) to remove the inhibitor-containing medium from the filter plate. Cells were washed twice by resuspending with 200 μL of medium per well and centrifuged. Cells in each well were then resuspended with 1.25×10^6 (50 μL) of Dynabeads CD3 (Life Technologies) and incubated for 18 hours at 37° C. Conditioned media was collected by centrifugation (188×g for 1 min). Human IL-2 concentration was measured with the AlphaLISA human IL2 Kit (PerkinElmer) and data collected on an Envision Plate Reader (PerkinElmer). Data were analyzed and graphed using GraphPad Prism version b7.0b. Technical duplicates of the concentration response were collected at each determination.

[3] = system: PLCγ1 phosphorylation; test: Inhibition of PLCγ1 phosphorylation in Jurkat cells; assay type: cell-based, human; details: anti-CD3
Experimental: as §1

[4] = target: T1, ITK (Homo sapiens, UniProt Q08881); test: Jump dilution assay; assay type: binding; design: purchased Invitrogen; details: for reversibility of ITK inhibition on dilution: dilution into competitive probe
T1 sequence (Q08881 1-620): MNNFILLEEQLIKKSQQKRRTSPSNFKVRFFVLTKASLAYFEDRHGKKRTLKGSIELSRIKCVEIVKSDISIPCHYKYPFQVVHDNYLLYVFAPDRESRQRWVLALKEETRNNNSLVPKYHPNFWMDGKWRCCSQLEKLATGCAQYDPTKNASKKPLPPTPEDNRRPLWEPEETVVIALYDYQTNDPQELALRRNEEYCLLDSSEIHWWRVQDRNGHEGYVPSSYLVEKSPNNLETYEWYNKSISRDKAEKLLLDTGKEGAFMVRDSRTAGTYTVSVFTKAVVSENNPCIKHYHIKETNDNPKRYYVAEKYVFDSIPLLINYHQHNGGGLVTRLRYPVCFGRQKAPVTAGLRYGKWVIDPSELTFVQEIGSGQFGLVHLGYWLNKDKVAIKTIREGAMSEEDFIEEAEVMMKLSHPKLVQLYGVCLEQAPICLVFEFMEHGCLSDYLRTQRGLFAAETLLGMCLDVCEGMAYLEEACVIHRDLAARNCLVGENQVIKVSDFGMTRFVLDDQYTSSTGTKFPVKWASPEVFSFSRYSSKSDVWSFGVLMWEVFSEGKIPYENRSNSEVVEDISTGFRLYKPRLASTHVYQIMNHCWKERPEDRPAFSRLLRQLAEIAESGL
Experimental: The assay format is similar to the Competitive Tracer-binding Assay and relies on the reversible binding of tracer 236 to recombinant tagged human ITK. […] The mixture was then filtered through a desalting column (Thermo Scientific, Zeba Spin Desalting Column, 40K MWCO) to remove unbound inhibitor. The assay was initiated immediately after the desalting step by diluting the eluate containing the inhibited kinase complex 50-fold into a solution of anti-tag antibody (2 nM final) and excess tracer 236 (40 nM final). Dissociation of inhibitor and binding of tracer was monitored immediately after assay initiation using an EnVision plate reader (excitation 340 nm, dual emission at 665 nm and 615 nm). Reagents including GST-tagged recombinant human ITK, Kinase tracer 236, Lanthascreen Eu-Anti-GST antibody and kinase buffer A were purchased from ThermoFisher Scientific/Invitrogen. Each data point represents the mean of technical triplicates. Equation 3 was fitted to the BMS-509744 data to obtain the rate constant using GraphPad Prism from which the half-life was calculated.

[5] = system: peripheral T cell lymphoma; test: Anti-tumor activity in human clinical trials (T cell lymphoma); assay type: in vivo
Excerpt: Each lane represents a patient with the length indicating time on treatment. A treatment cycle is 21 days and then the cycle is repeated until the patient experiences tumor progression or unacceptable toxicity.

[6] = target: T2, RLK (Homo sapiens, UniProt P42681); test: Human kinome profiling at 1.0 μM, RLK; assay type: biochemical; details: read-out: percent control, RLK
T2 construct: purchased Invitrogen PV5860
T2 sequence (P42681 whole entry): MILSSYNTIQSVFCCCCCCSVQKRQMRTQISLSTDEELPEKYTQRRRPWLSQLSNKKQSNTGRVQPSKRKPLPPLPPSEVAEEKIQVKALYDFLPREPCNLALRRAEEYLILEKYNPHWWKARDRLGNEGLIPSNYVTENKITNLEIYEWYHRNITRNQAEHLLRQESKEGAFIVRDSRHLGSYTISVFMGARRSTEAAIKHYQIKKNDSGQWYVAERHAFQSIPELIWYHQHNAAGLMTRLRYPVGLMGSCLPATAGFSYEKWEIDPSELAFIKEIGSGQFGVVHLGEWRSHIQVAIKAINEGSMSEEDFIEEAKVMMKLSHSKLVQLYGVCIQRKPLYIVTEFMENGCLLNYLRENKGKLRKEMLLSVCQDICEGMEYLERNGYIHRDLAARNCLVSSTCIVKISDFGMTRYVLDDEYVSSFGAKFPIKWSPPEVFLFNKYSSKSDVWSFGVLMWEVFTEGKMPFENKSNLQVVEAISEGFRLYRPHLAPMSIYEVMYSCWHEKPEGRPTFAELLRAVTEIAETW

[7] = system: bleomycin-induced pulmonary fibrosis; test: Bleomycin-induced mouse pulmonary fibrosis model; assay type: in vivo; details: 10 and 30 mg/kg QD, day 7-21
[8] = target: T1, ITK; test: Dialysis assay; assay type: biochemical; details: 24 h dialysis
Experimental: Dialysis was performed at room temperature against the same buffer for 24 hours in a Slide-A-Lyzer dialysis device (10 kDa MWCO) with three changes of the dialysis buffer giving a nominal final dialysis factor of 8×10^6. Un-dialyzed control samples incubated in parallel for 24 hours. ITK activity was measured following dialysis in a continuous sampling format using the microfluidic assay and 300 μM ATP and 2 μM Scrtide peptide substrate. The enzymatic velocity of treated samples was normalized to the appropriate control rate and expressed as a percent.

[9] = PTCL-NOS patient, within 8-15 days

- IC50 [2]: 136 nM
- persistence of blockade of tracer binding to ITK ([4]; after jump dilution): greater than 24 h
- reversibility of ITK inhibition on dilution [4]: did not dissociate upon dilution
- reversibility of ITK inhibition on dilution ([4]; listed as CP-818): irreversible
- remaining activity at 1 µM [6]: 70%
- ITK activity after extensive dialysis [8]: kinase activity was not recovered
- ITK activity after extensive dialysis ([8]; listed as CP-818): remained inhibited
SMILES: C=CC(=O)N1CCCN(C(=O)c2cc(Sc3cnc(NC(=O)C4CC4)s3)c(C)cc2OC)C[C@H]1C [CPI-818]
- phosphorylation of ZAP-70 [1]: but not ZAP-70
- phosphorylation of PLCγ1 [3]: dose-dependently inhibited
- dose with best anti-tumor response ([5]; 100, 200, 400, 600 mg BID evaluated): best response occurred at the dose of 200 mg BID
- duration of complete remission ([5]; Example 2, 200 mg BID): 25 months
- response of patient with peripheral T-cell lymphoma NOS ([5]; Example 2, 200 mg BID): complete remission
- response of patient with PTCL-NOS ([5]; FIG. 23, cycle 17, after 1 year of treatment): complete response
- duration of complete response ([5]; FIG. 23 patient): 19 months
- platelets (PLT) and lactate dehydrogenase (LDH) [5, 9]: improvement
- subcutaneous (SQ) tumor [5, 9]: dramatic reduction
- BALF leukocytes [7]: reduced
- lung weight [7]: reduced
